{"source": "ChEMBL document CHEMBL4376887", "about": "“Rose Bengal-Amphiphilic Peptide Conjugate for Enhanced Photodynamic Therapy of Malignant Melanoma” (J Med Chem, 2020)", "key": {"B16-F10-luc2 [1]": {"test_system": "B16-F10-luc2", "experiment": "Photo-activated cytotoxicity against mouse B16-F10-luc2 cells assessed as cell viability at 1 uM preincubated for 3 hrs followed by compound washout and subsequent 22.8 J cm'-2 light irradiation for 60 secs measured after 21 hrs by MTT assay relative to control", "type": "functional", "settings": "B16-F10-luc2, light or radiation study, read-out: Activity"}, "[2]": {"experiment": "Induction of ROS generation in ethanol assessed as reduction in DPBF absorbance at 410 nm at 1 uM preincubated for 10 mins followed by 342 J cm'-2 light irradiation for 15 mins and measured at 5 mins interval for 15 mins by spectrometric method", "type": "functional"}, "[3]": {"experiment": "Induction of singlet oxygen generation in ethanol at 1 uM preincubated for 10 mins followed by 342 J cm'-2 light irradiation for 15 mins and measured at 5 mins interval for 15 mins by spectrometric method", "type": "functional"}, "[4]": {"experiment": "Cytotoxicity against mouse B16-F10-luc2 cells assessed as cell viability at 1 uM incubated for 24 hrs under dark condition by MTT assay relative to control", "type": "cell-based", "settings": "read-out: Activity"}, "B16-F10-luc2 [5]": {"test_system": "B16-F10-luc2", "experiment": "Photo-activated cytotoxicity against mouse B16-F10-luc2 cells assessed as reduction in cell viability preincubated for 3 hrs followed by compound washout and subsequent 22.8 J cm'-2 light irradiation for 60 secs measured after 21 hrs by MTT assay", "type": "functional, cell-based", "settings": "B16-F10-luc2, light or radiation study"}, "B16-F10-luc2 [6]": {"test_system": "B16-F10-luc2", "experiment": "(§1) Induction of apoptosis in mouse B16-F10-luc2 cells assessed as decrease in viable cells at 1 uM preincubated for 3 hrs followed by compound washout and subsequent 22.8 J cm'-2 light irradiation for 60 secs measured after 21 hrs by Alexa Fluor 488 Annexin V/Dead Cell staining based flow cytometry", "type": "functional"}, "B16-F10-luc2 [7]": {"test_system": "B16-F10-luc2", "experiment": "as §1, with “increase” for “decrease”, “late apoptotic” for “viable”", "type": "functional"}, "B16-F10-luc2 [8]": {"test_system": "B16-F10-luc2", "experiment": "Induction of apoptosis in mouse B16-F10-luc2 cells assessed as increase in necrotic cells at 1 uM preincubated for 3 hrs followed by compound washout and subsequent 22.8 J cm'-2 light irradiation for 60 secs measured after 21 hrs by Alexa Fluor 488 Annexin V/Dead Cell staining based flow cytometry", "type": "functional"}, "B16-F10-luc2 [9]": {"test_system": "B16-F10-luc2", "experiment": "Induction of apoptosis in mouse B16-F10-luc2 cells assessed as decrease in viable cells at 1 uM measured after 24 hrs by Alexa Fluor 488 Annexin V/Dead Cell staining based flow cytometry", "type": "functional"}, "B16-F10-luc2 [10]": {"test_system": "B16-F10-luc2", "experiment": "Induction of apoptosis in mouse B16-F10-luc2 cells assessed as increase in late apoptotic cells at 1 uM measured after 24 hrs by Alexa Fluor 488 Annexin V/Dead Cell staining based flow cytometry", "type": "functional"}, "B16-F10-luc2 [11]": {"test_system": "B16-F10-luc2", "experiment": "Induction of apoptosis in mouse B16-F10-luc2 cells assessed as increase in necrotic cells at 1 uM measured after 24 hrs by Alexa Fluor 488 Annexin V/Dead Cell staining based flow cytometry", "type": "functional"}, "B16-F10-luc2 [12]": {"test_system": "B16-F10-luc2", "experiment": "Induction of reactive oxygen species generation in mouse B16-F10-luc2 cells at 10 uM preincubated for 3 hrs followed by compound washout prior to […] addition for 1 hr and subsequent 22.8 J cm'-2 light irradiation for 60 secs post media washout and measured immediately by fluorescence assay", "type": "functional, cell-based"}, "B16-F10-luc2 [13]": {"test_system": "B16-F10-luc2", "experiment": "Antitumor activity against mouse B16-F10-luc2 cells implanted in SCID mouse assessed as tumor growth at 100 uM, iv administered on day 1, 2, 7, and 9 measured for 12 days relative to control", "type": "functional"}, "B16-F10-luc2 [14]": {"test_system": "B16-F10-luc2", "experiment": "Antitumor activity against mouse B16-F10-luc2 cells implanted in SCID mouse assessed as tumor growth at 100 uM, iv administered 30 mins prior to 68.4 J cm'-2 light irradiation for 3 mins on day 1, 2, 7, and 9 measured for 12 days relative to control", "type": "functional"}, "B16-F10-luc2 [15]": {"test_system": "B16-F10-luc2", "experiment": "Antitumor activity against mouse B16-F10-luc2 cells implanted in SCID mouse assessed as reduction in tumor growth at 100 uM, iv administered 30 mins prior to 68.4 J cm'-2 light irradiation for 3 mins on day 1, 2, 7, and 9 measured on day 13", "type": "functional, organism-based"}, "[16]": {"experiment": "Toxicity in mouse B16-F10-luc2 cells implanted SCID mouse assessed as effect on body weight at 100 uM, iv administered 30 mins prior to 68.4 J cm'-2 light irradiation for 3 mins on day 1, 2, 7, and 9", "type": "organism-based", "settings": "in vivo, 0.05 h"}, "[17]": {"experiment": "Acute toxicity in mouse B16-F10-luc2 cells implanted SCID mouse at 100 uM, iv administered 30 mins prior to 68.4 J cm'-2 light irradiation for 3 mins on day 1, 2, 7, and 9", "type": "organism-based", "settings": "in vivo, 0.05 h"}, "MCF7 [18]": {"test_system": "MCF7", "experiment": "Photo-activated cytotoxicity against human MCF7 cells assessed as reduction in cell viability up to 1 uM preincubated for 3 hrs followed by compound washout and subsequent 22.8 J cm'-2 light irradiation for 60 secs measured after 21 hrs by MTT assay", "type": "functional, cell-based"}, "PANC-1 [19]": {"test_system": "PANC-1", "experiment": "Photo-activated cytotoxicity against human PANC1 cells assessed as reduction in cell viability up to 1 uM preincubated for 3 hrs followed by compound washout and subsequent 22.8 J cm'-2 light irradiation for 60 secs measured after 21 hrs by MTT assay", "type": "functional, cell-based"}, "MCF7 [20]": {"test_system": "MCF7", "experiment": "Cytotoxicity against human MCF7 cells assessed as reduction in cell viability up to 1 uM incubated for 24 hrs under dark condition by MTT assay", "type": "cell-based", "settings": "mcf7, 24 h"}, "PANC-1 [21]": {"test_system": "PANC-1", "experiment": "Cytotoxicity against human PANC1 cells assessed as reduction in cell viability up to 1 uM incubated for 24 hrs under dark condition by MTT assay", "type": "cell-based", "settings": "panc-1, 24 h"}, "HeLa [22]": {"test_system": "HeLa", "experiment": "Photo-activated cytotoxicity against human HeLa cells assessed as reduction in cell viability preincubated for 3 hrs followed by compound washout and subsequent 22.8 J cm'-2 light irradiation for 60 secs measured after 21 hrs by MTT assay", "type": "functional, cell-based", "settings": "light or radiation study"}, "[23]": {"experiment": "Drug uptake in mouse B16-F10-luc2 cells assessed as increase in fluorescence intensity at 10 uM measured after 3 hrs by confocal laser scanning microscopic analysis relative to RB", "type": "ADME, cell-based", "settings": "b16-f10-luc2, 3 h"}, "HeLa [24]": {"test_system": "HeLa", "experiment": "Photo-activated cytotoxicity against human HeLa cells assessed as reduction in cell viability preincubated for 4 hrs followed by compound washout and subsequent 3.3 mW cm'-2 light irradiation for 24 mins measured after 48 hrs by MTT assay", "type": "functional, cell-based", "settings": "light or radiation study"}, "B16-F10-luc2 [25]": {"test_system": "B16-F10-luc2", "experiment": "Antitumor activity against mouse B16-F10-luc2 cells implanted in SCID mouse assessed as tumor volume at 100 uM, iv administered 30 mins prior to 68.4 J cm'-2 light irradiation for 3 mins on day 1, 2, 7, and 9 measured for 12 days relative to control", "type": "functional"}}, "note": "Active and inactive are the calls of the source. The calls are words filed in the database; no cut-off is given here."}
{"smiles": "O=C(O)CCCCCCCOC(=O)c1c(Cl)c(Cl)c(Cl)c(Cl)c1-c1c2cc(I)c(=O)c(I)c-2oc2c(I)c(O)c(I)cc12", "values": [{"measurement": "viability at 1 µM", "setting": "B16-F10-luc2 [1]", "result": 62, "unit": "%"}, {"measurement": "Activity", "setting": "[2]", "result": "Active"}, {"measurement": "Activity", "setting": "[3]", "result": "Active"}]}
{"smiles": "CC(C)C[C@H](NC(=O)[C@H](CCCCN)NC(=O)[C@H](C)NC(=O)[C@H](CC(C)C)NC(=O)[C@H](CCCCN)NC(=O)[C@H](CCCCN)NC(=O)[C@H](C)NC(=O)[C@H](CC(C)C)NC(=O)[C@H](CCCCN)NC(=O)[C@H](C)NC(=O)[C@H](CC(C)C)NC(=O)[C@H](CCCCN)NC(=O)[C@H](CS)NC(=O)CCCCCCCOC(=O)c1c(Cl)c(Cl)c(Cl)c(Cl)c1-c1c2cc(I)c(=O)c(I)c-2oc2c(I)c(O)c(I)cc12)C(=O)N[C@@H](C)C(=O)N[C@@H](CCCCN)C(N)=O", "values": [{"measurement": "viability at 1 µM", "setting": "B16-F10-luc2 [1]", "result": 6, "unit": "%"}, {"measurement": "viability at 24 h, 1 µM", "setting": "[4]", "result": 69, "unit": "%"}, {"measurement": "IC50", "setting": "B16-F10-luc2 [5]", "result": 310, "unit": "nM"}, {"measurement": "Activity", "setting": "B16-F10-luc2 [6]", "result": "Active"}, {"measurement": "Activity", "setting": "B16-F10-luc2 [7]", "result": "Active"}, {"measurement": "Activity", "setting": "B16-F10-luc2 [8]", "result": "Active"}, {"measurement": "Activity", "setting": "B16-F10-luc2 [9]", "result": "Active"}, {"measurement": "Activity", "setting": "B16-F10-luc2 [10]", "result": "Active"}, {"measurement": "Activity", "setting": "B16-F10-luc2 [11]", "result": "Active"}, {"measurement": "Activity", "setting": "[2]", "result": "Active"}, {"measurement": "Activity", "setting": "[3]", "result": "Active"}, {"measurement": "Activity", "setting": "B16-F10-luc2 [12]", "result": "Active"}, {"measurement": "Activity", "setting": "B16-F10-luc2 [13]", "result": 573, "unit": "%"}, {"measurement": "Activity", "setting": "B16-F10-luc2 [14]", "result": 23, "unit": "%"}, {"measurement": "Activity", "setting": "B16-F10-luc2 [15]", "result": "Active"}, {"measurement": "Activity", "setting": "[16]", "result": "Non-Toxic"}, {"measurement": "Activity", "setting": "[17]", "result": "Non-Toxic"}, {"measurement": "Activity", "setting": "MCF7 [18]", "result": "Active"}, {"measurement": "Activity", "setting": "PANC-1 [19]", "result": "Active"}, {"measurement": "Activity", "setting": "MCF7 [20]", "result": "Active"}, {"measurement": "Activity", "setting": "PANC-1 [21]", "result": "Active"}, {"measurement": "IC50", "setting": "HeLa [22]", "result": 290, "unit": "nM"}, {"measurement": "Drug uptake", "setting": "[23]", "result": 69, "unit": "%"}]}
{"smiles": "C=Cc1c(C)c2cc3[nH]c(cc4nc(cc5nc(cc1[nH]2)C(C)=C5CCC(=O)O)C(CCC(=O)O)=C4C)c(C)c3C=C", "values": [{"measurement": "IC50", "setting": "HeLa [24]", "result": 1610, "unit": "nM"}]}
{"smiles": "C=Cc1c(C)c2cc3[nH]c(cc4nc(cc5nc(cc1[nH]2)C(C)=C5CCC(=O)N[C@@H](CS)C(=O)N[C@@H](CCCCN)C(=O)N[C@@H](CC(C)C)C(=O)N[C@@H](C)C(=O)N[C@@H](CCCCN)C(=O)N[C@@H](CC(C)C)C(=O)N[C@@H](C)C(=O)N[C@@H](CCCCN)C(=O)N[C@@H](CCCCN)C(=O)N[C@@H](CC(C)C)C(=O)N[C@@H](C)C(=O)N[C@@H](CCCCN)C(=O)N[C@@H](CC(C)C)C(=O)N[C@@H](C)C(=O)N[C@@H](CCCCN)C(N)=O)C(CCC(=O)O)=C4C)c(C)c3C=C", "values": [{"measurement": "viability at 1 µM", "setting": "B16-F10-luc2 [1]", "result": 38, "unit": "%"}, {"measurement": "viability at 24 h, 1 µM", "setting": "[4]", "result": 46, "unit": "%"}]}
{"smiles": "O=C([O-])c1c(Cl)c(Cl)c(Cl)c(Cl)c1-c1c2cc(I)c(=O)c(I)c-2oc2c(I)c([O-])c(I)cc12.[Na+].[Na+]", "note": "[ROSE BENGAL SODIUM]", "values": [{"measurement": "viability at 1 µM", "setting": "B16-F10-luc2 [1]", "result": 69, "unit": "%"}, {"measurement": "Activity", "setting": "[2]", "result": "Active"}, {"measurement": "Activity", "setting": "B16-F10-luc2 [25]", "result": 502, "unit": "%"}, {"measurement": "Activity", "setting": "B16-F10-luc2 [15]", "result": "Active"}, {"measurement": "Activity", "setting": "MCF7 [20]", "result": "Active"}, {"measurement": "Activity", "setting": "PANC-1 [21]", "result": "Active"}]}
